{"source": "patent US20070172957A1", "about": "“Methods of identifying anti-inflammatory macrolides” (TAISHO PHARMACEUTICAL CO., LTD., priority 2004, published 2007)", "test_system": "genes predictive for the anti-inflammatory macrolide effect", "assay": "Genes statistically predictive of Clari response: differentially expressed with Clari but not the inactive macrolides MAA or Josa (Appendix E)", "assay_type": "cell-based", "text": "In the case of the above-mentioned (i) related to arachidonic acid biosynthesis, specifically, methods of the embodiment involve assaying whether a test macrolide alters biosynthesis of arachidonic acid, alters the expression or activities of enzymes involved in the biosynthesis or activation of arachidonic acid (e.g., arachidonic acid CoA synthetase, delta-6 desaturase, fatty acid elongase, and delta-5 desaturase, AA-related genes in Tables 2 and 3), or alters the expression of genes identified as predictive for the anti-inflammatory macrolide effect (Appendix E). Assays in which arachidonic acid or gene expression or enzymatic activity is detected can be carried out after contacting a cell with a test macrolide. Any cell line that secretes prostaglandin or produces arachidonic acid can be used. Epithelial and macrophages lines (e.g., A549 or THP-1) are suitable for this purpose; other cell lines can be identified by carrying out assays such as those described in the specific Examples, below. Alternatively, screening assays can be carried out after adding a test macrolide to an in vitro cell system (e.g., a cellular extract or liver microsome preparation) or an in vitro enzyme assay system."}
{"smiles": "CC[C@H]1OC(=O)[C@H](C)[C@@H](O[C@H]2C[C@@](C)(OC)[C@@H](O)[C@H](C)O2)[C@H](C)[C@@H](O[C@@H]2O[C@H](C)C[C@H](N(C)C)[C@H]2O)[C@](C)(OC)C[C@@H](C)C(=O)[C@H](C)[C@@H](O)[C@]1(C)O", "note": "[clarithromycin]", "values": [{"measurement": "group mean, gene UNG", "setting": "SpotID 48807, MAA and Josa vs. Clari", "value": 0.91}, {"measurement": "group mean, gene TUBB", "setting": "SpotID 48914, MAA and Josa vs. Clari", "value": 0.83}, {"measurement": "group mean, gene ITGAE", "setting": "SpotID 48921, MAA and Josa vs. Clari", "value": 0.99}, {"measurement": "mean group, ITGAE", "setting": "SpotID 48921, pooled group mean", "value": 0.97}, {"measurement": "group mean, gene P4HA2", "setting": "SpotID 48971, MAA and Josa vs. Clari", "value": 1.48}, {"measurement": "group mean, gene FADS1", "setting": "SpotID 48998, MAA and Josa vs. Clari", "value": 1.44}, {"measurement": "group mean, gene PRSS25", "setting": "SpotID 49006, MAA and Josa vs. Clari", "value": 1.17}, {"measurement": "mean group, PRSS25", "setting": "SpotID 49006, pooled group mean", "value": 1.14}, {"measurement": "group mean, gene TM9SF2", "setting": "SpotID 49007, MAA and Josa vs. Clari", "value": 1.20}, {"measurement": "mean group, TM9SF2", "setting": "SpotID 49007, pooled group mean", "value": 1.18}, {"measurement": "group mean, gene BBC3", "setting": "SpotID 49013, MAA and Josa vs. Clari", "value": 1.07}, {"measurement": "group mean, gene BNIP3L", "setting": "SpotID 49028, MAA and Josa vs. Clari", "value": 1.25}, {"measurement": "mean group, BNIP3L", "setting": "SpotID 49028, pooled group mean", "value": 1.20}, {"measurement": "group mean, gene GSK3B", "setting": "SpotID 49032, MAA and Josa vs. Clari", "value": 1.23}, {"measurement": "group mean, gene GLUD1", "setting": "SpotID 49047, MAA and Josa vs. Clari", "value": 0.95}, {"measurement": "group mean, gene SERPINB1", "setting": "SpotID 49117, MAA and Josa vs. Clari", "value": 0.84}, {"measurement": "mean group, SERPINB1", "setting": "SpotID 49117, pooled group mean", "value": 0.88}, {"measurement": "group mean, gene PPIB", "setting": "SpotID 49142, MAA and Josa vs. Clari", "value": 1.18}, {"measurement": "group mean, gene PIK3R3", "setting": "SpotID 49144, MAA and Josa vs. Clari", "value": 1.15}, {"measurement": "group mean, gene ARTS-1", "setting": "SpotID 49155, MAA and Josa vs. Clari", "value": 0.81}, {"measurement": "mean group, ARTS-1", "setting": "SpotID 49155, pooled group mean", "value": 0.86}, {"measurement": "group mean, gene LGALS3", "setting": "SpotID 49163, MAA and Josa vs. Clari", "value": 1.23}, {"measurement": "group mean, gene RRS1", "setting": "SpotID 49169, MAA and Josa vs. Clari", "value": 0.88}, {"measurement": "mean group, RRS1", "setting": "SpotID 49169, pooled group mean", "value": 0.93}, {"measurement": "group mean, gene YAF2", "setting": "SpotID 49172, MAA and Josa vs. Clari", "value": 0.90}, {"measurement": "group mean, gene NEDD8", "setting": "SpotID 49177, MAA and Josa vs. Clari", "value": 1.06}, {"measurement": "group mean, gene SRRM1", "setting": "SpotID 49183, MAA and Josa vs. Clari", "value": 0.81}, {"measurement": "group mean, gene FUCA1", "setting": "SpotID 49197, MAA and Josa vs. Clari", "value": 1.13}, {"measurement": "group mean, gene APOE", "setting": "SpotID 49233, MAA and Josa vs. Clari", "value": 1.03}, {"measurement": "mean group, APOE", "setting": "SpotID 49233, pooled group mean", "value": 1.01}, {"measurement": "mean group, TNFRSF10B", "setting": "SpotID 49272, pooled group mean", "value": 1.08}, {"measurement": "group mean, gene PPIB", "setting": "SpotID 49314, MAA and Josa vs. Clari", "value": 1.18}, {"measurement": "mean group, PPIB", "setting": "SpotID 49314, pooled group mean", "value": 1.16}, {"measurement": "group mean, gene YWHAH", "setting": "SpotID 49318, MAA and Josa vs. Clari", "value": 0.95}, {"measurement": "mean group, YWHAH", "setting": "SpotID 49318, pooled group mean", "value": 0.97}, {"measurement": "group mean, gene HNRPA3", "setting": "SpotID 49347, MAA and Josa vs. Clari", "value": 0.71}, {"measurement": "group mean, gene NCBP2", "setting": "SpotID 49352, MAA and Josa vs. Clari", "value": 1.03}, {"measurement": "group mean, gene TEB4", "setting": "SpotID 49360, MAA and Josa vs. Clari", "value": 0.88}, {"measurement": "mean group, TEB4", "setting": "SpotID 49360, pooled group mean", "value": 0.94}, {"measurement": "group mean, gene ABCE1", "setting": "SpotID 49364, MAA and Josa vs. Clari", "value": 0.92}, {"measurement": "group mean, gene EIF3S9", "setting": "SpotID 49373, MAA and Josa vs. Clari", "value": 0.94}, {"measurement": "mean group, SpotID 49374", "setting": "SpotID 49374 (gene symbol not given), pooled group mean", "value": 1.03}, {"measurement": "group mean, SpotID 49374 (gene symbol not given)", "setting": "SpotID 49374, MAA and Josa vs. Clari", "value": 1.04}, {"measurement": "group mean, gene SLC35A2", "setting": "SpotID 49380, MAA and Josa vs. Clari", "value": 1.11}, {"measurement": "group mean, gene PPP3CB", "setting": "SpotID 49391, MAA and Josa vs. Clari", "value": 0.92}, {"measurement": "group mean, gene TRRAP", "setting": "SpotID 49435, MAA and Josa vs. Clari", "value": 0.89}, {"measurement": "mean group, TRRAP", "setting": "SpotID 49435, pooled group mean", "value": 0.92}, {"measurement": "group mean, gene SRC", "setting": "SpotID 49446, MAA and Josa vs. Clari", "value": 1.17}, {"measurement": "mean group, SRC", "setting": "SpotID 49446, pooled group mean", "value": 1.14}, {"measurement": "group mean, gene LOC55871", "setting": "SpotID 49481, MAA and Josa vs. Clari", "value": 1.05}, {"measurement": "group mean, gene VTN", "setting": "SpotID 49490, MAA and Josa vs. Clari", "value": 0.91}, {"measurement": "mean group, VTN", "setting": "SpotID 49490, pooled group mean", "value": 0.94}, {"measurement": "group mean, gene MATN2", "setting": "SpotID 49511, MAA and Josa vs. Clari", "value": 1.17}, {"measurement": "group mean, gene GC20", "setting": "SpotID 49512, MAA and Josa vs. Clari", "value": 1.16}, {"measurement": "group mean, gene UBC", "setting": "SpotID 49514, MAA and Josa vs. Clari", "value": 1.11}, {"measurement": "mean group, UBC", "setting": "SpotID 49514, pooled group mean", "value": 1.09}, {"measurement": "group mean, gene AP1G2", "setting": "SpotID 49524, MAA and Josa vs. Clari", "value": 0.97}, {"measurement": "mean group, AP1G2", "setting": "SpotID 49524, pooled group mean", "value": 0.92}, {"measurement": "group mean, gene GNPI", "setting": "SpotID 49546, MAA and Josa vs. Clari", "value": 1.16}, {"measurement": "mean group, LOC54543", "setting": "SpotID 49577, pooled group mean", "value": 1.02}, {"measurement": "group mean, gene PSMC4", "setting": "SpotID 49580, MAA and Josa vs. Clari", "value": 0.99}, {"measurement": "mean group, CSTF3", "setting": "SpotID 49606, pooled group mean", "value": 1.07}, {"measurement": "group mean, gene POU4F1", "setting": "SpotID 49608, MAA and Josa vs. Clari", "value": 1.05}, {"measurement": "group mean, gene CLN2", "setting": "SpotID 49618, MAA and Josa vs. Clari", "value": 1.15}, {"measurement": "mean group, CLN2", "setting": "SpotID 49618, pooled group mean", "value": 1.12}, {"measurement": "group mean, gene FGF2", "setting": "SpotID 49649, MAA and Josa vs. Clari", "value": 0.76}, {"measurement": "group mean, gene MAP3K10", "setting": "SpotID 49650, MAA and Josa vs. Clari", "value": 1.16}, {"measurement": "mean group, BTN3A2", "setting": "SpotID 49673, pooled group mean", "value": 1.11}, {"measurement": "mean group, SERPINF1", "setting": "SpotID 49679, pooled group mean", "value": 1.09}, {"measurement": "group mean, gene GSK3B", "setting": "SpotID 49688, MAA and Josa vs. Clari", "value": 1.26}, {"measurement": "group mean, gene CAT", "setting": "SpotID 49698, MAA and Josa vs. Clari", "value": 1.08}, {"measurement": "group mean, gene PCYT2", "setting": "SpotID 49705, MAA and Josa vs. Clari", "value": 1.24}, {"measurement": "group mean, gene HNRPD", "setting": "SpotID 49715, MAA and Josa vs. Clari", "value": 0.88}, {"measurement": "group mean, gene GSK3B", "setting": "SpotID 49735, MAA and Josa vs. Clari", "value": 1.13}, {"measurement": "group mean, gene CHAF1B", "setting": "SpotID 49737, MAA and Josa vs. Clari", "value": 0.84}, {"measurement": "mean group, CHAF1B", "setting": "SpotID 49737, pooled group mean", "value": 0.88}, {"measurement": "group mean, gene USF2", "setting": "SpotID 49744, MAA and Josa vs. Clari", "value": 1.07}, {"measurement": "group mean, gene RPLP0", "setting": "SpotID 49747, MAA and Josa vs. Clari", "value": 1.09}]}
